Two compounds from paper PMC2989405 (Cell, 2009) can be followed below.

One test addresses T1, rat MrgprA (Rattus norvegicus, UniProt Q7TN49).
T1 sequence (Q7TN49 1-304): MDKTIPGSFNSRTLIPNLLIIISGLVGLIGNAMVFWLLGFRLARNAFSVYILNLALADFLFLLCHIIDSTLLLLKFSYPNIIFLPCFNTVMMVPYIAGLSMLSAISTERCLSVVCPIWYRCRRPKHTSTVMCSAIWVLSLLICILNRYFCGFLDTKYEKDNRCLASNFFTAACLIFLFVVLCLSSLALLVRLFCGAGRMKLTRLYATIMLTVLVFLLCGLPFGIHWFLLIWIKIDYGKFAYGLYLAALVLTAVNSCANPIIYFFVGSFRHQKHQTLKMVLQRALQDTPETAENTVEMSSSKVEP
In words: response of electroporated Mrgpr-deficient mouse DRG neurons. Format: cell-based. Conditions: agonist.

A further test addresses T2, MrgprA3 (Mus musculus, UniProt Q91WW3).
T2 sequence (Q91WW3 1-302): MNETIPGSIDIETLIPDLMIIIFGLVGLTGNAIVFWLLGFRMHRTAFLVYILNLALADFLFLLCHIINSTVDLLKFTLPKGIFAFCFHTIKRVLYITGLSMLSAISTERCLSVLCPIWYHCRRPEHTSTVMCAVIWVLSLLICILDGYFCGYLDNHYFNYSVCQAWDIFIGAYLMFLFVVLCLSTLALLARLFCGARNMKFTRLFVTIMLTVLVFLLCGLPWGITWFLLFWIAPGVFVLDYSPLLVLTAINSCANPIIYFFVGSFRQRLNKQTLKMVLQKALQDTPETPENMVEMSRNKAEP
In words: calcium imaging. The format is cell-based. Conditions: agonist; dose-response in figure.

Take `CCN(CC)CCCC(C)Nc1ccnc2cc(Cl)ccc12` (centres unmarked) [chloroquine]: the “response of electroporated Mrgpr-deficient mouse DRG neurons” value at rat MrgprA is reported as “Expression of rat MrgprA in Mrgpr-clusterΔ^−/− DRG neurons conferred CQ sensitivity upon them”.
On to `C=C[C@H]1CN2CC[C@H]1C[C@H]2[C@H](O)c1ccnc2ccc(OC)cc12` [quinine], for which the “calcium imaging (fura-2) in transfected HEK293 cells” value at MrgprA3 is listed as “Unlike CQ, quinine weakly activates MrgprA3”.
